Laboratory results from patent US9926264B2, “Phenylcarbamate derivatives as formyl peptide receptor modulators” (Allergan, Inc., priority 2013, dated 2018).

Molecular target: T1, FPR2 (Homo sapiens, UniProt P25090)
T1 construct: expressed in transfected cells; host or cells: CHO-Gα16 cells
T1 sequence (P25090 1-351): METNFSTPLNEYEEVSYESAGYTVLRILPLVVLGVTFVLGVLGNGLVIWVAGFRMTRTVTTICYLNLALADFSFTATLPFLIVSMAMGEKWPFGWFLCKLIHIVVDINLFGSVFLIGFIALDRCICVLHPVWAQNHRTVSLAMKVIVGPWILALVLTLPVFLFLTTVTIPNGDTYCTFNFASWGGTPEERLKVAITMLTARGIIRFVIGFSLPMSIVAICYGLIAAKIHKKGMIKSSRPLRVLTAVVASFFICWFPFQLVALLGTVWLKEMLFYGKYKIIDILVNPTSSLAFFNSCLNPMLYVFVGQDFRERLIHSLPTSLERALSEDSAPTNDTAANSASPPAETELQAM
Experiment: compound-induced calcium activity on FLIPR Tetra in CHO-Gα16 cells stably expressing FPR2
Assay type: cell-based
Conditions: for Emax: efficacy value in brackets after EC50, read-out: FPR2 Gα16-CHO (% eff); for EC50: tested 0.61 to 10,000 nM
Procedure: CHO-Gα16 cells stably expressing FPR2 were cultured in (F12, 10% FBS, 1% PSA, 400 μg/ml geneticin and 50 μg/ml hygromycin) and HEK-Gqi5 cells stable expressing FPR1 were cultured in (DMEM high glucose, 10% FBS, 1% PSA, 400 μg/ml geneticin and 50 μg/ml hygromycin). In general, the day before the experiment, 18,000 cells/well were plated in a 384-well clear bottom poly-D-lysine coated plate. The following day the screening compound-induced calcium activity was assayed on the FLIPR^Tetra. The drug plates were prepared in 384-well microplates using the EP3 and the MultiPROBE robotic liquid handling systems. Compounds were tested at concentrations ranging from 0.61 to 10,000 nM. Results are expressed as EC50 (nM) and % efficacy values.

Compound: CC(C)C[C@H](OC(=O)Nc1ccc(Br)cc1)C(=O)NCC(=O)OC(C)(C)C [Compound 1, tert-Butyl {[(2S)-2-{[(4-Bromophenyl)carbamoyl]oxy}-4-methylpentanoyl]amino}acetate]
- Emax: 89%
- EC50: 526 nM

Compound: CC(C)C[C@H](OC(=O)Nc1ccc(C(F)(F)F)cc1)C(=O)NCC(=O)OC(C)(C)C [Compound 2, tert-Butyl {[(2S)-4-Methyl-2-({[4-(trifluoromethyl)phenyl]carbamoyl}oxy)pentanoyl]amino}acetate]
- Emax: 112%
- EC50: 2020 nM

Compound: CC(C)C[C@H](OC(=O)Nc1ccc(Br)cc1)C(=O)N(C)CC(=O)OC(C)(C)C [Compound 3, tert-Butyl {[(2S)-2-{[(4-Bromophenyl)carbamoyl]oxy}-4-methylpentanoyl](methyl)amino}acetate]
- Emax: 101%
- EC50: 109 nM

Compound: CC(C)C[C@H](OC(=O)Nc1ccc(Br)cc1)C(=O)N(C)CCO [Compound 4, (2S)-1-[(2-Hydroxyethyl)(methyl)amino]-4-methyl-1-oxopentan-2-yl (4-bromophenyl)carbamate]
- Emax: 97%
- EC50: 59 nM

Compound: CCOP(=O)(CNC(=O)[C@H](CC(C)C)OC(=O)Nc1ccc(C(F)(F)F)cc1)OCC [Compound 5, Diethyl ({[(2S)-4-methyl-2-({[4-(Trifluoromethyl)phenyl]carbamoyl}oxy)pentanoyl]amino}methyl)phosphonate]
- Emax: 101%
- EC50: 6.7 nM

Compound: CC(C)C[C@H](OC(=O)Nc1ccc(C(F)(F)F)cc1)C(=O)NCCO [Compound 6, (2S)-1-[(2-Hydroxyethyl)amino]-4-Methyl-1-oxopentan-2-yl [4-(trifluoromethyl)phenyl]carbamate]
- Emax: 75%
- EC50: 146 nM

Compound: CC(C)C[C@H](OC(=O)Nc1ccc(Br)cc1)C(=O)NCCO [Compound 7, (2S)-1-[(2-Hydroxyethyl)amino]-4-methyl-1-oxopentan-2-yl (4-bromophenyl)carbamate]
- Emax: 98%
- EC50: 35 nM

Compound: CCOP(=O)(CNC(=O)[C@H](CC(C)C)OC(=O)Nc1ccc(Br)cc1)OCC [Compound 8, Diethyl ({[(2S)-2-{[(4-bromophenyl)carbamoyl]oxy}-4-methylpentanoyl]amino}methyl)phosphonate]
- Emax: 100%
- EC50: 1.8 nM

Compound: CCCN(CC(=O)OC(C)(C)C)C(=O)[C@H](CC(C)C)OC(=O)Nc1ccc(Br)cc1 [Compound 9, tert-Butyl {[(2S)-2-{[(4-Bromophenyl)carbamoyl]oxy}-4-methylpentanoyl](propyl)amino}acetate]
- Emax: 104%
- EC50: 4.4 nM

Compound: CC(C)C[C@H](OC(=O)Nc1ccc(Br)cc1)C(=O)N(CC(=O)OC(C)(C)C)C(C)C [Compound 10, tert-Butyl {[(2S)-2-{[(4-Bromophenyl)carbamoyl]oxy}-4-methylpentanoyl](propan-2-yl)amino}acetate]
- Emax: 103%
- EC50: 11 nM

Compound: CCN(CC(=O)OC(C)(C)C)C(=O)[C@H](CC(C)C)OC(=O)Nc1ccc(Br)cc1 [Compound 11, tert-Butyl {[(2S)-2-{[(4-Bromophenyl)carbamoyl]oxy}-4-methylpentanoyl](ethyl)amino}acetate]
- Emax: 97%
- EC50: 8 nM

Compound: CC(C)C[C@H](OC(=O)Nc1ccc(C(F)(F)F)cc1)C(=O)N(C)CC(=O)OC(C)(C)C [Compound 12, tert-Butyl {Methyl[(2S)-4-methyl-2-({[4-(trifluoromethyl)phenyl]carbamoyl}oxy)pentanoyl]amino}acetate]
- Emax: 100%
- EC50: 24.8 nM

Compound: CCN(CC(=O)OC(C)(C)C)C(=O)[C@H](CC(C)C)OC(=O)Nc1ccc(C(F)(F)F)cc1 [Compound 13, tert-Butyl {Ethyl[(2S)-4-methyl-2-({[4-(trifluoromethyl)phenyl]carbamoyl}oxy)pentanoyl]amino}acetate]
- Emax: 99%
- EC50: 16.6 nM

Compound: CC(C)C[C@H](OC(=O)Nc1ccc(Br)cc1)C(=O)NCc1nnn[nH]1 [Compound 14, (2S)-4-Methyl-1-oxo-1-[(1H-tetrazol-5-ylmethyl)amino]pentan-2-yl (4-bromophenyl)carbamate]
- Emax: 101%
- EC50: 1.3 nM

Compound: CC(C)C[C@H](OC(=O)Nc1ccc(C(F)(F)F)cc1)C(=O)NCc1nnn[nH]1 [Compound 15, (2S)-4-methyl-1-oxo-1-[(1H-tetrazol-5-ylmethyl)amino]pentan-2-yl [4-(trifluoromethyl)phenyl]carbamate]
- Emax: 96%
- EC50: 3.6 nM

Compound: CC(C)C[C@H](OC(=O)Nc1ccc(Br)cc1)C(=O)N(C)Cc1nnn[nH]1 [Compound 16, (2S)-4-methyl-1-[methyl(1H-tetrazol-5-ylmethyl)amino]-1-oxopentan-2-yl (4-bromophenyl)carbamate]
- Emax: 98%
- EC50: 0.81 nM

Compound: CC(C)C[C@H](OC(=O)Nc1ccc(C(F)(F)F)cc1)C(=O)N(C)Cc1nnn[nH]1 [Compound 17, (2S)-4-methyl-1-[methyl(1H-tetrazol-5-ylmethyl)amino]-1-oxopentan-2-yl [4-(trifluoromethyl)phenyl]carbamate]
- Emax: 91%
- EC50: 2.4 nM

Compound: CC(=O)OCCNC(=O)[C@H](CC(C)C)OC(=O)Nc1ccc(C(F)(F)F)cc1 [Compound 18, 2-{[(2S)-4-Methyl-2-({[4-(trifluoromethyl)phenyl]carbamoyl}oxy)pentanoyl]amino}ethyl acetate]
- Emax: 89%
- EC50: 195 nM

Compound: CC(C)C[C@H](OC(=O)Nc1ccc(Br)cc1)C(=O)NCC(=O)O [Compound 19, {[(2S)-2-{[(4-Bromophenyl)carbamoyl]oxy}-4-methylpentanoyl]amino}acetic acid]
- Emax: 101%
- EC50: 0.84 nM

Compound: CC(C)C[C@H](OC(=O)Nc1ccc(C(F)(F)F)cc1)C(=O)NCC(=O)O [Compound 20, {[(2S)-4-Methyl-2-({[4-(trifluoromethyl)phenyl]carbamoyl}oxy)pentanoyl]amino}acetic acid]
- Emax: 99%
- EC50: 3.9 nM

Compound: CC(C)C[C@H](OC(=O)Nc1ccc(Br)cc1)C(=O)N(C)CC(=O)O [Compound 21, {[(2S)-2-{[(4-Bromophenyl)carbamoyl]oxy}-4-methylpentanoyl](methyl)amino}acetic acid]
- Emax: 106%
- EC50: 0.25 nM

Compound: CCCN(CC(=O)O)C(=O)[C@H](CC(C)C)OC(=O)Nc1ccc(Br)cc1 [Compound 22, {[(2S)-2-{[(4-Bromophenyl)carbamoyl]oxy}-4-methylpentanoyl](propyl)amino}acetic acid]
- Emax: 91%
- EC50: 0.44 nM

Compound: CC(C)C[C@H](OC(=O)Nc1ccc(Br)cc1)C(=O)N(CC(=O)O)C(C)C [Compound 23, {[(2S)-2-{[(4-Bromophenyl)carbamoyl]oxy}-4-methylpentanoyl](propan-2-yl)amino}acetic acid]
- Emax: 105%
- EC50: 0.32 nM

Compound: CCN(CC(=O)O)C(=O)[C@H](CC(C)C)OC(=O)Nc1ccc(Br)cc1 [Compound 24, {[(2S)-2-{[(4-Bromophenyl)carbamoyl]oxy}-4-methylpentanoyl](ethyl)amino}acetic acid]
- Emax: 95%
- EC50: 0.24 nM

Compound: CC(C)C[C@H](OC(=O)Nc1ccc(C(F)(F)F)cc1)C(=O)N(C)CC(=O)O [Compound 25, {Methyl[(2S)-4-methyl-2-({[4-(trifluoromethyl)phenyl]carbamoyl}oxy)pentanoyl]amino}acetic acid]
- Emax: 97%
- EC50: 0.94 nM

Compound: CCN(CC(=O)O)C(=O)[C@H](CC(C)C)OC(=O)Nc1ccc(C(F)(F)F)cc1 [Compound 26, {Ethyl[(2S)-4-methyl-2-({[4-(trifluoromethyl)phenyl]carbamoyl}oxy)pentanoyl]amino}acetic acid]
- Emax: 98%
- EC50: 0.29 nM

Compound: CC(C)C[C@H](OC(=O)Nc1ccc(Br)cc1)C(=O)N(C)CCOS(=O)(=O)O [Compound 27, (2S)-4-Methyl-1-{methyl[2-(sulfooxy)ethyl]amino}-1-oxopentan-2-yl (4-bromophenyl)carbamate]
- Emax: 99%
- EC50: 8.7 nM

Compound: CC(C)C[C@H](OC(=O)Nc1ccc(C(F)(F)F)cc1)C(=O)NCS(=O)(=O)O [Compound 28, ({(2S)-4-methyl-2-[({[4-(trifluoromethyl)phenyl]amino}carbonyl)oxy]pentanoyl}amino)methanesulfonic acid]
- Emax: 85%
- EC50: 4.3 nM

Compound: CCCN(CC(=O)OC(C)(C)C)C(=O)[C@H](CC(C)C)OC(=O)Nc1ccc(C(F)(F)F)cc1 [Compound 29, tert-Butyl [{(2S)-4-methyl-2-[({[4-(trifluoromethyl)phenyl]amino}carbonyl)oxy]pentanoyl}(propyl)amino]acetate]
- Emax: 101%
- EC50: 11.4 nM

Compound: CC(C)C[C@H](OC(=O)Nc1ccc(C(F)(F)F)cc1)C(=O)N(CC(=O)OC(C)(C)C)C(C)C [Compound 30, tert-Butyl (Isopropyl{(2S)-4-methyl-2-[({[4-(trifluoromethyl)phenyl]amino}carbonyl)oxy]pentanoyl}amino)acetate]
- Emax: 76%
- EC50: 301 nM

Compound: CCN(Cc1nnn[nH]1)C(=O)[C@H](CC(C)C)OC(=O)Nc1ccc(Br)cc1 [Compound 31, (1S)-1-{[ethyl(1H-tetrazol-5-ylmethyl)amino]carbonyl}-3-methylbutyl (4-bromophenyl)carbamate]
- Emax: 95%
- EC50: 0.3 nM
